According to PMC7766155, “Improved Stability and Activity of a Marine Peptide-N6NH2 against Edwardsiella tarda and Its Preliminary Application in Fish” (Marine Drugs, 2020):
≈ marks a conversion by molar mass, not a printed value. Where “and” joins values, the source holds several entries; their conditions need not be identical. Equal entries are not always repeated. Where two headings read alike, the source gives them in different places. Where a SMILES comes first, the peptide text is derived from it. Bridges are numbered along the chain shown (N, C = ends).

Experiments:
RAW 264.7 macrophages = format: cell-based, mouse; conditions: 48 h
Protocol: The colorimetric MTT assay was used to determine the effect of peptides on the viability of murine peritoneal RAW 264.7 macrophage cells. Macrophage cells were added into 96-well plates (5 × 10^3 cells/well) and incubated for 24 h at 37 °C (5% (v/v) CO2/air). A series of peptide solutions were added into the cells and incubated for 48 h. The untreated cells were used as the control (Acontrol). The MTT solution was added into plates, incubated for 4 h, and then removed from plates. Dimethyl sulfoxide (DMSO) was then added into plates and the absorbance was measured at 570 nm in a spectrophotometer. The cell viability was calculated using the following formula: Survival rate (%) = […] × 100.

E. tarda [1] = assay: Kirby-Bauer disk diffusion susceptibility; format: cell-based, Edwardsiella tarda; conditions: disc diffusion, MHA, 37 °C 18 h, CLSI standard; 27 antibiotics; Supplementary Table S2
Protocol: The susceptibility of E. tarda to antibiotics was determined by the Kirby-Bauer disk diffusion method according to Clinical Laboratory Standards Institute (CLSI). E. tarda was cultured in TSB medium (10 mL) at 28 °C overnight. The MHA petri dish plates were seeded with a 250 μL bacterial solution (OD600nm = 1.0). […] The diameter of the bacterial inhibition zone was measured, and the results were determined according to the standard of CLSI.

E. tarda [2] = assay: Thermal stability (residual antibacterial activity, inhibition zone); format: physicochemical, Edwardsiella tarda; conditions: incubated 1 h at 20, 40, 60, 80 or 100 °C; N6NH2 64 μg/mL, norfloxacin 10 μg/mL; inhibition zone method; triplicate
Protocol: (§1) To evaluate the thermal stability of peptides, N6 and N6NH2 were incubated for 1 h at 4, 20, 40, 60, 80 and 100 °C. To measure the pH stability, peptides were incubated for 3 h in 100 mM glycine-HCl buffer (pH 2.0), sodium acetate buffer (pH 4.0), sodium phosphate buffer (pH 6.0), Tris-HCl buffer (pH 8.0) or glycine-NaOH buffer (pH 10.0). In addition, peptides were incubated for 4 h at 37 °C in pepsin (3,000 U/mg, pH 2.0) and trypsin (250 U/mg, pH 8.0) (10:1, w/w) solutions, respectively. […] After treatment, 30 μL of solutions were taken out to determine the antibacterial activity of peptides against E. tarda by the inhibition zone method. The untreated peptides were used as the control. All tests were conducted in triplicate.

E. tarda [3] = assay: pH stability (residual antibacterial activity, inhibition zone); format: physicochemical, Edwardsiella tarda; conditions: pH values of 2–10, 3 h incubation; N6 128 μg/mL, norfloxacin 10 μg/mL; inhibition zone method vs E. tarda
Protocol: as §1

[4] = test system: inner membrane of E. tarda; assay: Inner membrane penetration, PI staining, flow cytometry; format: cell-based, Edwardsiella tarda; conditions: norfloxacin-treated control, all time points of Figure 3B
Protocol: After washing twice with PBS, the cells were incubated with PI (50 μg/mL) for 15 min and analyzed using a FACS Calibur Flow Cytometer (BD, San Jose, CA, USA).

E. tarda cells = assay: TEM ultrastructure; format: cell-based, Edwardsiella tarda; conditions: 4 × MIC for 2 h, 1 × 10^8 CFU/mL
Protocol: Mid-log phase E. tarda cells (1 × 10^8 CFU/mL) were incubated with 4 × MIC N6 or N6NH2 for 2 h at 37 °C. The bacterial cells were then centrifuged, washed three times with 0.1 M PBS (pH 7.2) and fixed overnight at 4 °C with 2.5% glutaraldehyde. After washing twice with PBS, the cells were post-fixed with 1% osmium tetroxide (OsO4) for 2 h, dehydrated in a graded ethanol series (from 50% to 100%) for 15 min each time and dried by CO2. The cell samples were sputtered with gold-palladium and observed on a QUANTA200 electron microscopy (FEI, Philips, The Netherlands).
The bacterial cells were treated with peptides as described above, fixed with 2.5% glutaraldehyde at 4 °C overnight and post-fixed with 1% OsO4 for 1 h. After washing three times with PBS, the cells were dehydrated with a graded acetone series (50%, 70%, 85%, 95% and 100%, for 7 min each time) and immersed in mixtures of acetone and resin (3:1, 1:1 and 1:3, 40 min each time). The samples were infiltrated with a pure epoxy resin overnight, embedded in capsules containing embedding medium and polymerized at 45 °C for 3 h and at 65 °C for 24 h, respectively. Thin sections were cut using an ultramicrotome, stained with 1% uranyl acetate and examined by a JEM1400 (JEDL, Tokyo, Japan).

E. tarda [5] = assay: Fish peritonitis model, survival; format: in vivo, O. niloticus; conditions: 1.29 mg/kg norfloxacin i.p. once
Protocol: The fish (O. niloticus, Gift strain, 20 g mean weight) were purchased from Beijing Fisheries Technology Extension Center, Hainan Station, China and were acclimated at 25 ± 1 °C. The fish were fed twice daily with commercial pellets for two weeks before experiments.
O. niloticus (6 fish/group) were intraperitoneally injected with LC100 of E. tarda, followed 30 min later by 200 µL N6NH2 (2.5, 5, and 10 mg/kg, respectively). Norfloxacin was used as a positive control. Fish injected with only bacteria or saline served as negative (untreated) or blank (unchallenged) controls, respectively. […] The fish survival rate was recorded daily for 5 d. Two independent experiments were conducted, including pre-experiment and formal experiment.

E. tarda [6] = assay: Fish peritonitis model, bacterial translocation (organ load); format: in vivo, O. niloticus; conditions: 1.29 mg/kg norfloxacin i.p. once; 24 h after treatment
Protocol: Sixty fish were randomly divided into 6 groups (10 fish/group). […] The remaining untreated group served as negative control. The fish injected with saline were used as the blank control. The challenge and treatment were performed as described above. […] Other fish were used to analyze the effects on tissues and immune genes.

E. tarda [7] = assay: Fish peritonitis model, histopathology; format: in vivo, O. niloticus; conditions: N6NH2 (10 mg/kg) or norfloxacin 1.29 mg/kg; hematoxylin and eosin, light microscope; 3 fish/group
Protocol: The spleen, kidney, liver, intestine and brain samples (3 fish/group) were used for tissue section observation. After 24 h of fixation, all samples were dehydrated with 75–95% ethanol, embedded in paraffin and cut to 6 μm thin sections. Sections were stained with hematoxylin and eosin and observed by a light microscope.

Staphylococcus hyicus = assay: microbe, parasite or virus in culture; format: cell-based
Protocol: (§2) All tests were conducted in triplicate.

[8] = test system: Escherichia coli, S. typhimurium, S. enteritidis and S. pullorum; assay: organism not typed; format: cell-based; conditions: range over other Gram-negative strains of Table 2; read-out: MIC
Protocol: as §2

Edwardsiella tarda = assay: MIC, broth microdilution
[9] = LPS binding, BODIPY-TR-cadaverine displacement; design: species or system E. coli; conditions: 0.5 µM LPS, 5 μM BC, Tris buffer pH 7.4; 0.049 μM to 50 μM; excitation/emission 580/620 nm
E. tarda [10] = format: cell-based, Edwardsiella tarda
Protocol: as §2

[11] = test system: Gram-negative bacteria (except Pseudomonas aeruginosa CICC21630); assay: MIC, range over strains; format: cell-based; conditions: range over Gram-negative strains of Table 2
Protocol: as §2

E. tarda and A. veronii = format: cell-based
Protocol: as §2

E. coli CVCC1515 = conditions: CVCC1515
E. coli CVCCO157 = conditions: broth microdilution, MHB, 1 × 10^5 CFU/mL, 37 °C 18–24 h, n = 3; some N6 data from ref 19
S. enteritidis CVCC3377 = conditions: CVCC3377
S. pullorum CVCC1789 = conditions: CVCC1789
[12] = test system: Pseudomonas aeruginosa CICC21630; conditions: CICC21630
[13] = test system: Staphylococcus aureus ATCC43300; conditions: ATCC43300
S. aureus ATCC546 = conditions: ATCC546
S. aureus ATCC25923 = conditions: ATCC25923

CC(C)[C@@H]1NC(=O)CNC(=O)[C@H](CC(N)=O)NC(=O)[C@H](CCCNC(=N)N)NC(=O)[C@H](Cc2ccc(O)cc2)NC(=O)[C@H](C(C)C)NC(=O)[C@@H](NC(=O)[C@@H](NC(=O)[C@H](CC(N)=O)NC(=O)[C@H](Cc2c[nH]c3ccccc23)NC(=O)[C@H](C)NC(=O)[C@H](Cc2ccccc2)NC(=O)CN)C(C)C)CSSC[C@@H](C(=O)N[C@@H](Cc2cnc[nH]2)C(=O)N[C@@H](CCCNC(=N)N)C(=O)N[C@@H](CCCNC(=N)N)C(=O)N[C@@H](C)C(=O)N[C@@H](CC(N)=O)C(=O)O)NC(=O)[C@H](C(C)C)NC(=O)[C@H](CCCNC(=N)N)NC1=O [Peptide N6] (H-GFAWNVCVYRNGVRVCHRRAN-OH; disulfide 7-16)
cell survival rate (RAW 264.7 macrophages): > 93.35%

bacitracin
susceptibility of E. tarda to antibiotics (E. tarda [1]): resistance

CCn1cc(C(=O)O)c(=O)c2cc(F)c(N3CCNCC3)cc21 [Norfloxacin]
antimicrobial activity against E. tarda after exposure to temperature (E. tarda [2]): did not change | antibacterial activity at different pH values (E. tarda [3]): strong antibacterial activity | percentage of E. tarda stained with PI [4]: less than 1% | abnormal cells (TEM) (E. tarda cells): not significantly affected | survival rate of fish (E. tarda [5]; 0.5 h after E. tarda 1.0 × 10^9 CFU/mL i.p., within 2 d, 6 fish/group): 16.7% | survival rate of fish (E. tarda [5]; time not stated in the sentence (survival recorded for 5 d)): 16.7% | number of bacteria in organs (blood, spleen, kidney, liver) (E. tarda [6]): did not decrease in any organs except the liver | histological findings in liver, kidney and intestine (E. tarda [7]): obvious pathological changes were found in organs | MIC (Staphylococcus hyicus; Staphylococcus hyicus, range over S. hyicus strains of Table 2, read-out: MIC): 4 to 16 µg/mL (≈ 12.5 to 50.1 µM) | MIC [8]: 0.06 to 1 µg/mL (≈ 0.188 to 3.13 µM) | MIC (Edwardsiella tarda): 0.5 µg/mL and 1.57 µM

CC1(C)S[C@@H]2[C@H](NC(=O)[C@H](N)c3ccccc3)C(=O)N2[C@H]1C(=O)O [ampicillin, reference compound]
binding to LPS (displacement of BC probe) [9]: neither ampicillin nor norfloxacin replaced the BC probe or bound to LPS

CC(C)[C@@H]1NC(=O)CNC(=O)[C@H](CC(N)=O)NC(=O)[C@H](CCCNC(=N)N)NC(=O)[C@H](Cc2ccc(O)cc2)NC(=O)[C@H](C(C)C)NC(=O)[C@@H](NC(=O)[C@@H](NC(=O)[C@H](CC(N)=O)NC(=O)[C@H](Cc2c[nH]c3ccccc23)NC(=O)[C@H](C)NC(=O)[C@H](Cc2ccccc2)NC(=O)CN)C(C)C)CSSC[C@@H](C(=O)N[C@@H](Cc2cnc[nH]2)C(=O)N[C@@H](CCCNC(=N)N)C(=O)N[C@@H](CCCNC(=N)N)C(=O)N[C@@H](C)C(=O)N[C@@H](CC(N)=O)C(N)=O)NC(=O)[C@H](C(C)C)NC(=O)[C@H](CCCNC(=N)N)NC1=O [Peptide N6NH2] (H-GFAWNVCVYRNGVRVCHRRAN-NH2; disulfide 7-16)
cell survival rate (RAW 264.7 macrophages): > 93.35%

CC1(C)S[C@@H]2[C@H](NC(=O)[C@H](N)c3ccc(O)cc3)C(=O)N2[C@H]1C(=O)O [amoxicillin]
susceptibility of E. tarda to antibiotics (E. tarda [1]): resistance

CC(C)[C@@H]1NC(=O)CNC(=O)[C@H](CC(N)=O)NC(=O)[C@H](CCCNC(=N)N)NC(=O)[C@H](Cc2ccc(O)cc2)NC(=O)[C@H](C(C)C)NC(=O)[C@@H](NC(=O)[C@@H](NC(=O)[C@H](CC(N)=O)NC(=O)[C@H](Cc2c[nH]c3ccccc23)NC(=O)[C@H](C)NC(=O)[C@H](Cc2ccccc2)NC(=O)CN)C(C)C)CSSC[C@@H](C(=O)N[C@@H](Cc2c[nH]cn2)C(=O)N[C@@H](CCCNC(=N)N)C(=O)N[C@@H](CCCNC(=N)N)C(=O)N[C@@H](C)C(=O)N[C@@H](CC(N)=O)C(N)=O)NC(=O)[C@H](C(C)C)NC(=O)[C@H](CCCNC(=N)N)NC1=O [Peptide N6NH2] (H-GFAWNVCVYRNGVRVCHRRAN-NH2; disulfide 7-16)
MBC (E. tarda [10]): 6.4 µg/mL (≈ 2.59 µM) | MIC (Staphylococcus hyicus): 3.2 to 12.8 µg/mL | MIC [11]: 0.8 to 3.2 µg/mL | MIC (E. tarda and A. veronii): 0.65 to 1.29 µM | MIC (E. coli CVCC1515): 0.323 µM (≈ 0.799 µg/mL) | MIC (E. coli CVCCO157): 0.646 µM (≈ 1.6 µg/mL) | MIC (S. enteritidis CVCC3377): 0.323 µM (≈ 0.799 µg/mL) | MIC (S. pullorum CVCC1789): 1.29 µM (≈ 3.19 µg/mL) | MIC [12]: 10.34 µM (≈ 25.6 µg/mL) | MIC [13]: 2.58 µM (≈ 6.39 µg/mL) | MIC (S. aureus ATCC546): 2.58 µM (≈ 6.39 µg/mL) | MIC (S. aureus ATCC25923): 5.17 µM (≈ 12.8 µg/mL) | MIC (S. hyicus 437-2): 5.17 µM (≈ 12.8 µg/mL) | MIC (S. hyicus 15095): 1.29 µM (≈ 3.19 µg/mL)

O=C1OCCN1/N=C/c1ccc([N+](=O)[O-])o1 [furazolidone]
susceptibility of E. tarda to antibiotics (E. tarda [1]): resistance
